Reference: ChEMBL document CHEMBL1201862, “PubChem BioAssay data set” (2004)
The source made the active and inactive calls. Cut-off read from the data, not from the text of the source, for most assays here: actives have a measured EC50 and inactives only a lower limit.

Columns and labels:
[1] = Luminescence Cell-Based Dose Confirmation HTS to Identify Inhibitors of Platelet Dense Granule Release. [Related pubchem assays: 1663 (Primary HTS), 1678 (Summary of Project)]; assay type: functional
[2] = biological target: Luciferin 4-monooxygenase (Photinus pyralis, UniProt P08659); test: firefly luciferase enzyme inhibitors, dose response, biochemical, luminescence (AID 1891)
[3] = biological target: T1, Zinc finger protein mex-5 (Caenorhabditis elegans, UniProt Q9XUB2); test: MEX-5/TCR-2 RNA interaction inhibitors, dose response, biochemical, C. elegans, fluorescence polarization (AID 1960)
T1 sequence (Q9XUB2 whole entry): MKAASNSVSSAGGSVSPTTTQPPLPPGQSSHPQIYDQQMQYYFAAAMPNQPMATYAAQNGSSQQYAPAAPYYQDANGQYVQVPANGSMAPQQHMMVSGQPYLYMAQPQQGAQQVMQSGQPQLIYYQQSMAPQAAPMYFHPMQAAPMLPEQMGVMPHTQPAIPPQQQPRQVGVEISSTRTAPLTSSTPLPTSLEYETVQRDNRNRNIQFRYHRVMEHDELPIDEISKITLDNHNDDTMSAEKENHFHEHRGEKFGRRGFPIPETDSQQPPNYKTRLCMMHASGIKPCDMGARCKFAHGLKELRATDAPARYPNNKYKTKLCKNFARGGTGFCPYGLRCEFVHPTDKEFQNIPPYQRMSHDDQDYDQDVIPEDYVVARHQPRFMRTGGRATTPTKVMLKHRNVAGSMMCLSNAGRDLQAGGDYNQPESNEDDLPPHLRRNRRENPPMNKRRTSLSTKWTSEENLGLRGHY

[4] = biological target: T2, RNA-binding protein pos-1 (Caenorhabditis elegans, UniProt G5EF15); test: inhibitors of POS-1/mex-3 RNA binding, dose response, biochemical, fluorescence polarization (AID 1964);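 note: purified POS-1 fused to maltose binding protein made in E. coli; potency of compounds blocking POS-1 binding to fluorescent RNA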
T2 sequence (G5EF15 whole entry): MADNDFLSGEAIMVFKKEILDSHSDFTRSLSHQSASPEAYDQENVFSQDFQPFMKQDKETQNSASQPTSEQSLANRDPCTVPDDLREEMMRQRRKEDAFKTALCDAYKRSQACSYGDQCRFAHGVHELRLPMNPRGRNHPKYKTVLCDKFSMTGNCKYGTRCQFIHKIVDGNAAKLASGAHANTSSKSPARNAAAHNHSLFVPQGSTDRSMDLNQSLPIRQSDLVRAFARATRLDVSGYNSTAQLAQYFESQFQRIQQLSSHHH

[5] = biological target: FAD-linked sulfhydryl oxidase ALR (Homo sapiens, UniProt P55789); test: inhibitors of human ALR sulfhydryl oxidase, dose response, biochemical, H2O2 detection, luminescence, cherry-pick (AID 493248)
H9c2 = test: cells; assay type: functional, cell-based; settings: Rattus norvegicus, H9c2, Myocardium;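 note: confirmatory concentration-response retest of ultra-high-throughput screening hits for modulation of myocardial damage; cell death induced by hydrogen peroxide oxidative stress; compound pretreatment for 60 min then peroxide exposure for 2 h; potency is for protecting the cells against peroxide damage rather than for killing them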
Streptococcus = test: Group A Streptococcus viability loss, dose response, counter-screen for streptokinase expression inhibitor project, luminescence, BacTiterGlo (AID 1915); assay type: functional, organism-based;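 note: potency for reduction of bacterial viability or growth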
[6] = test system: Streptococcus sp. 'group A'; test: growth inhibition of control SK(-) GAS strain, dose response, counter-screen for streptokinase expression inhibitor project, luminescence, kanamycin, BacTiterGlo, confirmation (AID 1900); assay type: functional, organism-based
Streptokinase A = biological target: T3, Streptokinase A (Streptococcus pyogenes serotype M1, UniProt P10520); test: S. pyogenes streptokinase expression inhibitors, potency, dose response, plasminogen activation absorbance, OD405 (AID 1914); assay type: functional, Streptococcus pyogenes M1 GAS;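 note: secreted streptokinase activity via plasminogen activation per viability signal from cell pellet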
T3 sequence (P10520 whole entry): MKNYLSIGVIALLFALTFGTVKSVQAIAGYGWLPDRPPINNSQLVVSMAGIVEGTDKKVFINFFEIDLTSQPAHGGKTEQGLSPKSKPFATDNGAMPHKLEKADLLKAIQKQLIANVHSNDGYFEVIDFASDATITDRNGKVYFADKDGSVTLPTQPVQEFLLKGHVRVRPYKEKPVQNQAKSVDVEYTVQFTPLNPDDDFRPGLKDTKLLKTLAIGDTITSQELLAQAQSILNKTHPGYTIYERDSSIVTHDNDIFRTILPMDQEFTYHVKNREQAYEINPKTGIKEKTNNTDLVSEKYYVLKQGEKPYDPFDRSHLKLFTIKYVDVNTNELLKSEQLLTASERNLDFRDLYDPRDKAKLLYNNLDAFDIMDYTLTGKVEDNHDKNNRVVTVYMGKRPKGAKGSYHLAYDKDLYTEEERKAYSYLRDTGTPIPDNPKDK

BJ [7] = test: cytotoxicity toward BJ-TERT fibroblasts, dose response, cell-based, RAS-independent, luminescence (AID 1933); assay type: functional; settings: Homo sapiens
[8] = cytotoxicity toward DRD oncogenic fibroblasts, dose response, cell-based, non-viral oncogenic, luminescence (AID 1934); assay type: functional; settings: Homo sapiens
BJ [9] = test: cells; assay type: functional, cell-based; settings: Homo sapiens
[10] = biological target: T4, Heat shock factor protein 1 (Mus musculus, UniProt P38532); test: inhibition of MG132-induced HSE-luciferase signal, confirmation, cell-based, NIH3T3, luminescence, dose retest (AID 2382); assay type: functional;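 note: NIH3T3 fibroblasts with HSF1-driven luciferase reporter stressed by proteasome inhibitor MG132; luminescence from HSF1-driven luciferase expression after 8 hours of MG132 stress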
T4 sequence (P38532 whole entry): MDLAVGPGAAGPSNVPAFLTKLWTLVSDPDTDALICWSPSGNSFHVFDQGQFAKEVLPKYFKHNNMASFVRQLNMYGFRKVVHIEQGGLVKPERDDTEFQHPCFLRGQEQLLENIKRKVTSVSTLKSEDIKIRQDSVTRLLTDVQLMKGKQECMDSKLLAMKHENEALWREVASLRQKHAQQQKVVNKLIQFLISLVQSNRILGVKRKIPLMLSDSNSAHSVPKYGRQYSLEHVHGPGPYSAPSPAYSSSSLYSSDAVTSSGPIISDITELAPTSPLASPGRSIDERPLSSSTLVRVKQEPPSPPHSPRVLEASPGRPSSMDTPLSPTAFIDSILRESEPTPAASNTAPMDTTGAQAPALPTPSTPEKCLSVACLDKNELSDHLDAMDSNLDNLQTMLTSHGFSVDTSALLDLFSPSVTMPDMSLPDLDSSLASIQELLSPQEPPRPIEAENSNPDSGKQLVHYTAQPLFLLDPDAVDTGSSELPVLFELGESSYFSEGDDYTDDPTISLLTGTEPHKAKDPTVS

[11] = Shn3 3'UTR reporter inhibitors, dose response, cell-based, Clone20 osteoblasts, firefly luciferase, cherry-picked (AID 624132); assay type: functional;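 note: firefly luciferase luminescence from reporter carrying the Shn3 3'UTR in osteoblasts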
[12] = biological target: T5, Corticotropin-releasing factor receptor 2/Corticotropin-releasing factor-binding protein (Homo sapiens, UniProt P24387+Q13324); test: activators of CRF receptor 2 with binding protein – uHTS hits, confirmation (AID 602473); assay type: functional; settings: read-out: EC50_Mean
T5 sequence (Q13324 whole entry): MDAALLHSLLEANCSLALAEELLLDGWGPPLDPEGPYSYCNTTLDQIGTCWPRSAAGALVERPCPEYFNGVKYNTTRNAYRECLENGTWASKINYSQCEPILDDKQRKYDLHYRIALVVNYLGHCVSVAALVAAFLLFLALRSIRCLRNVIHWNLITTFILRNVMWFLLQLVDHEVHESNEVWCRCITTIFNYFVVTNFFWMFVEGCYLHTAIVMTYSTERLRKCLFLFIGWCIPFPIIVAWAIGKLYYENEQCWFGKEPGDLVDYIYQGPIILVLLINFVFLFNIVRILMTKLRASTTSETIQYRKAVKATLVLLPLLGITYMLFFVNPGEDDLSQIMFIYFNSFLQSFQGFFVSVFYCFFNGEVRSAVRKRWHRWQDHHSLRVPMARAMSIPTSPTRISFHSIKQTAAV
T5 sequence (P24387 whole entry): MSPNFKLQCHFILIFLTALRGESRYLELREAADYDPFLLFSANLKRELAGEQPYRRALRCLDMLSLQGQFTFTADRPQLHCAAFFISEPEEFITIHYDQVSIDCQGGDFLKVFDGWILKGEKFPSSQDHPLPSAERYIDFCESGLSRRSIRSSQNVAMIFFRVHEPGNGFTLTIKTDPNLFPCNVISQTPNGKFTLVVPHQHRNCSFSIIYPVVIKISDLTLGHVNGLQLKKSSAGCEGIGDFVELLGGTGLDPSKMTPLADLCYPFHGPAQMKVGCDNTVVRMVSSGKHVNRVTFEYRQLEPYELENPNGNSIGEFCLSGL

[13] = biological target: T5, Corticotropin-releasing factor receptor 2/Corticotropin-releasing factor-binding protein; test: Dose Response confirmation of uHTS hits for small molecule antagonists of the CRF-binding protein and CRF-R2 receptor complex.; assay type: functional; settings: read-out: IC50_Mean

FAD-linked sulfhydryl oxidase ALR, sequence (P55789 whole entry): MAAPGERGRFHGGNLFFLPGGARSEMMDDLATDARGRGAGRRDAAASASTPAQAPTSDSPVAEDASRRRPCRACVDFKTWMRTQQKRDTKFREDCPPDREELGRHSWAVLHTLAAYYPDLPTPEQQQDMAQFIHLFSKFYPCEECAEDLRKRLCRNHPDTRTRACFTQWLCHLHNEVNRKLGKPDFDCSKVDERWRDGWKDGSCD
Luciferin 4-monooxygenase, sequence (P08659 whole entry): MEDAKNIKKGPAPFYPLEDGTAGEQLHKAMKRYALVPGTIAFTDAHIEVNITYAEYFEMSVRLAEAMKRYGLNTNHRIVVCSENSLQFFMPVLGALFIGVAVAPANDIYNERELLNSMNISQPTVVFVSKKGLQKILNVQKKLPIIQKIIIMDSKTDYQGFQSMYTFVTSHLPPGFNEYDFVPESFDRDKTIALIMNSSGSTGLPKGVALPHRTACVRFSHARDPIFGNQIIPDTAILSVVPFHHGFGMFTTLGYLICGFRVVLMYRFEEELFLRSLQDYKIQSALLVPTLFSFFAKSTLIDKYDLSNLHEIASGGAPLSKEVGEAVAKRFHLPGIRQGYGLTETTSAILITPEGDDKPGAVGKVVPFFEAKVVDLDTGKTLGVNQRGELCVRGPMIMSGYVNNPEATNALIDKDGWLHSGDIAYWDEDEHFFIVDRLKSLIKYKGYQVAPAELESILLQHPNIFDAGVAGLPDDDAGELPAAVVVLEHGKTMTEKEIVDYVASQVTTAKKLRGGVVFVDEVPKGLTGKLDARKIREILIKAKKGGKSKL

Question: For `CCOC(=O)N1CCN(C(=O)CNC2CCCCCCC2)CC1`, which EC50 [1] is on record?
Answer: 16.7 µM (active)

Question: And the EC50 [2]?
Answer: > 112 µM (not active)

Question: For `CC(=O)N(C)c1ccc(N=NC2C(=O)N(C(N)=S)N=C2C)cc1` (stereo not drawn), which EC50 [3] is on record?
Answer: 34.6 µM (active)

Question: And the EC50 [4]?
Answer: > 300 µM (not active)

Question: For `COc1ccccc1N1C(=O)NC(=O)/C(=C\c2c[nH]c3ccccc23)C1=O`, which EC50 [3] is on record?
Answer: > 300 µM (not active)

Question: And the EC50 [4]?
Answer: > 300 µM (not active)

Question: With `CC1CCCCC1NC(=O)c1ccc(S(=O)(=O)NNC(=O)c2ccncc2)cc1` (stereo not drawn) as the molecule, how does the AC50 [5] read?
Answer: 2.99 µM (active)

Question: With `CC(=O)Oc1ccc(-c2cc3ccc(OC(C)=O)cc3oc2=O)cc1` as the molecule, how does the EC50 [2] read?
Answer: > 112 µM (not active)

Question: With `CCOC(=O)c1c(NC(=O)Nc2ccc(F)cc2)sc2c1CCN(C)C2` as the molecule, how does the EC50 [3] read?
Answer: 39.8 µM (active)

Question: And the EC50 [4]?
Answer: 27.7 µM (inconclusive)

Question: For `CN(C)c1ccc(NC(=O)CCn2c(=S)oc3ccccc32)cc1`, which AC50 [5] is on record?
Answer: 14.6 µM (active)

Question: With `O=C(NC1CCCCC1)N(C1=NCCCCC1)c1ccc(Br)cc1` as the molecule, how does the EC50 [1] read?
Answer: > 112 µM (not active)

Question: And the EC50 [2]?
Answer: > 112 µM (not active)

Question: Which IC50 (H9c2) does the source give for `O=C(NNC(=O)c1ccccc1OCc1ccccc1Cl)c1csc(N2CCOCC2)n1` here?
Answer: 12.8 µM (active)

Question: What about the EC50 (Streptococcus) of the same molecule?
Answer: > 150 µM (not active)

Question: And the EC50 [6]?
Answer: 12.8 µM (active)

Question: What about the EC50 (Streptokinase A) of the same molecule?
Answer: > 150 µM (not active)

Question: Which EC50 [3] does the source give for `CCC(=O)OC1(C)C(=O)C=C2C=C(c3ccsc3)OC=C2C1=O` (stereo not drawn) here?
Answer: 32.5 µM (active)

Question: And the EC50 [4]?
Answer: 34.1 µM (active)

Question: With `Cc1cccc(C(=O)O/N=C(\N)c2ccccn2)c1` as the molecule, how does the EC50 [1] read?
Answer: 20.4 µM (active)

Question: And the EC50 [2]?
Answer: 7.75 µM (active)

Question: Which EC50 [1] does the source give for `C[C@H](NC1=NS(=O)(=O)c2ccccc21)C(=O)OCc1cc([N+](=O)[O-])cc2c1OCOC2` here?
Answer: > 112 µM (not active)

Question: What about the EC50 [2] of the same molecule?
Answer: > 112 µM (not active)

Question: For `CCc1nnc2n1N=C(c1ccc([N+](=O)[O-])cc1)CS2`, which AC50 [5] is on record?
Answer: 6.01 µM (active)

Question: Which EC50 (BJ [7]) does the source give for `CCc1ccc(/C=C2\SC(=S)N(CCC(=O)NCCCN3CCOCC3)C2=O)cc1` here?
Answer: 1.24 µM (active)

Question: And the EC50 [8]?
Answer: 5.87 µM (active)

Question: What about the EC50 (BJ [9]) of the same molecule?
Answer: > 150 µM (not active)

Question: What does the source list for `CCN=C(S)N(C)CCc1cc2c(c(OC)c1C=C1C(=O)N(C)C(=O)N(C)C1=O)OCO2`?
Answer: EC50 [3]: > 300 µM (not active); EC50 [4]: > 300 µM (not active); EC50 [10]: > 195 µM (not active)

Question: With `O=C(NCC1CCCO1)c1cccc(NC(=O)c2ccc(Br)cc2)c1` (stereo not drawn) as the molecule, how does the EC50 [1] read?
Answer: > 112 µM (not active)

Question: And the EC50 [2]?
Answer: > 112 µM (not active)

Question: What does the source list for `CCC(C)NC(=O)c1cc(-c2ccccc2O)on1` (stereo not drawn)?
Answer: EC50 [1]: > 112 µM (not active); EC50 [2]: > 112 µM (not active)

Question: For `CCC(=O)N1CCN=C1SCc1cccc(C(F)(F)F)c1`, which AC50 [5] is on record?
Answer: 4.38 µM (active)

Question: Which AC50 [11] does the source give for `Nc1nnc(SCC(=O)Nc2ccc(N3CCOCC3)cc2)s1` here?
Answer: 16.8 µM (active)

Question: What does the source list for `CC1(C)CC(=O)C2=C(C1)OC(/N=C/N1CCCC1)=C(C#N)C2c1ccccc1` (stereo not drawn)?
Answer: EC50 [3]: > 300 µM (not active); EC50 [4]: > 300 µM (not active); EC50 [12]: > 53 µM (inactive); IC50 [13]: > 47.1 µM (inactive)

Question: With `COc1cc(/C=N/N2C(C)CCCC2C)cc(OC)c1O` (stereo not drawn) as the molecule, how does the AC50 [5] read?
Answer: 1.1 µM (active)

Question: Which AC50 [5] does the source give for `COc1cc(/C=N/NC(=O)c2cccc(S(=O)(=O)N3CCCC3)c2)cc(OC)c1O` here?
Answer: 0.039 µM (active)

Question: For `Cc1ccc(CN2CCN(/N=C/c3ccc(O)c(O)c3)CC2)cc1`, which AC50 [5] is on record?
Answer: 3.11 µM (active)
